Where two headings read alike, the source gives them in different places.
Legend:
[1] = test system: B-cells isolated from individuals with autoimmune disease; assay: MTT cell viability, sphingomyelin enhancement of chemotherapy on B-cells (Example 5); type: cell-based, human
Method: (§1) Sphingomyelin enhancement of chemotherapy is evaluated by measuring its effect on 5-fluorouracil or doxorubicin (DOX) treatment of B-cells isolated from individuals with autoimmune disease and grown in culture. Cell viability is measured using the dye MTT (3-(4,5-dimethylthiazol-2-yl)-2,5-diphenyl tetrazolium bromide) in a 24-well chamber format. See Mosmann, T., J. Immunol. Methods, 65:55-63 (1983). B-cells are maintained in RPMI media supplemented with 10% fetal calf serum. Human umbilical cord venous endothelial cells (HUVEC) from pooled donors (Clonetics/BioWhittaker, San Diego, Calif.) are used as controls. Cells (10^4/well) are plated in the presence of varying concentrations of drug and sphingomyelin and grown in a humidified incubator. As an additional control, egg yolk phosphatidylcholine (PC) (Sigma, St. Louis, Mo.) is added to the cells instead of sphingomyelin. Drugs and lipids are added to HUVEC cells 24 hours after plating, but otherwise are treated the same. After four days, the media is replaced with media containing 0.5 mg/ml MTT and incubated two to four hours at 37° C. An equal volume of 0.04 N HCl in isopropanol is added, and the absorbance at 570 nm is measured. The IC50 values, defined as the concentration of drug necessary to reduce cell viability by 50%, from three to seven independent experiments are averaged and compared using ANOVA.

[2] = test system: Primary Sjogren's Syndrome (pSS); assay: Therapy of primary Sjogren's syndrome with rituximab combined with sphingomyelin (Example 4); type: in vivo, human
Method: They then receive a course of rituximab (Rituxan, Genentech) at 600 mg infused over 6 hours every other week for 3 doses, combined with weekly infusions of sphingomyelin at doses of 400 mg for 6 weeks. During this therapy, only 15 mg prednisolone is continued as a maintenance therapy. After the first rituximab infusion, their circulating B-cells are measured to be depleted by 90%, which continues for about 8 months. Their main subjective symptoms of dry mouth and eyes show improvement, as well as their parotid gland reduction is noted, and also an improvement in their dry cough and purpura. An improvement of the objective parameters of dry eyes and dry mouth is also observed, and this improvement is maintained for at least 3 months after this therapy course. The combination of sphingomyelin with apoptosis-inducing agent is shown to be synergistic for treatment of pSS.

[3] = test system: Systemic Lupus Erythematosus (SLE); assay: Therapy of systemic lupus erythematosus with sphingomyelin, epratuzumab and prednisolone (Example 2); type: in vivo, human
Source text: patient two is a person with two healthy children, and with a history of SLE for at least 8 years. They have received prior cyclophosphamide, azathioprine, and corticosteroid treatments, with recurrent activity flares resulting in increasing disability. They have had evidence of myelosuppression, with lymphopenia, resulting in tapering of their medications. Prior to receiving the current experimental therapy, they are confirmed to have a diagnosis of SLE according to the American College of Rheumatology revised criteria, and moderately active disease (a score of 10 for total British Isles Lupus Assessment Group (BILAG) disease activity) at study entry. Their current medication of prednisolone, 15 mg/day, is continued, and they receive epratuzumab (anti-CD22 humanized monoclonal antibody) i.v. at 360 mg/m^2 once weekly every other week for a total of 4 infusions. Prior to each infusion, they are medicated with acetaminophen (Tylenol) and antihistamine (Benadryl). They are also given an infusion of 300 mg sphingomyelin twice weekly for 8 weeks. Two and 6 weeks after completion of this therapy, they are evaluated, and it is decided that their prednisolone doses of 15 mg/day can be tapered to 10 mg/day, because of initial evidence of improvement of their BILAG scores in 3 of the 8 body systems. Four weeks later, the SLE panel of tests (autoantibodies, C3, C-reactive protein, erythrocyte sedimentation rate), and physical examination indicate progressive improvement, with less fatigue, lethargy, malaise, anorexia, reduction of malar erythemia, and reduction of arthritis. They are considered to have about a 40% improvement of their condition as a result of the investigational therapy.

myasthenia gravis = assay: Treatment of a patient with myasthenia gravis, epratuzumab plus sphingomyelin (Example 8); type: in vivo, human
Method: A person has failed all conventional therapy for myasthenia gravis, and is admitted to a neurological intensive therapy unit. The patient is stabilized by plasma exchange, and is given intravenous immunoglobulin to reduce the titer of anti-acetylcholine receptor antibody. The patient remains bedridden, and is then treated with epratuzumab, 600 mg intravenously each week, plus 400 mg/wk of sphingomyelin, for a period of six weeks. […] Two months after the last treatment the patient is mobile, and is released from the hospital.

[4] = test system: Human umbilical cord venous endothelial cells (HUVEC); assay: MTT cell viability, control HUVEC cells (Example 5); type: cell-based
Method: as §1

[5] = test system: progressive rheumatoid arthritis; type: in vivo, human
Source text: A person, with severe progressive rheumatoid arthritis of the finger joints, wrists, and elbows, has failed therapy with methotrexate, and obtains only minor relief when placed on Enbrel therapy.

rheumatoid arthritis [6] = assay: Therapy of rheumatoid arthritis with sphingomyelin, patient one (Example 1); type: in vivo, human
Method: Various forms of sphingomyelin can be obtained in powder form from Sigma Chemicals (St. Louis, Mo.). Mix 1 g of sphingomyelin powder with 9.5 ml of sterile saline or phosphate buffered saline (PBS) and QS to 10 ml. Sonicate the resulting suspension in a water bath at 80-90° C. for 1 hour. The suspension should be administered within one hour of sonication and should be approximately room temperature (25-30° C.). The suspension can be stored at 4° C.; however, it should be re-sonicated for 30 minutes in a water bath at 80-90° C. before administration. […] They have a history of rheumatoid arthritis (RA) that presented about 5 years ago, and has undergone numerous treatments with corticosteroids, cyclophosphamide, and methotrexate, with responses of reduced durations and then relapses. They now present to their rheumatologist with active RA as judged by the presence of 5 tender and 4 swollen joints (out of 44 examined), morning stiffness for more than 45 minutes, an elevated erythrocyte sedimentation rate (ESR) of 40 mm/h (Westergren method), and an elevated C-reactive protein (CRP) blood level of 80 mg/L, as well as increased levels of rheumatoid factor (RF) of IgM, IgG, and IgA isotypes. All other laboratory tests, except circulating red blood cells (mild anemia), are within the normal range. They have been taking a nonsteroidal anti-inflammatory drug (NSAID; ibuprofen), 20 mg/day of prednisolone, and doses of cyclophosphamide i.v. (750 mg). The patient is allowed to continue on these medications, and is also given i.v. infusions of sphingomyelin (prepared as described above) in phosphate-buffered sterile saline and QS twice weekly at doses of 400 mg, continuing for 3 weeks. […] The patient is considered to have improved upon adding sphingomyelin i.v. therapy to their prior medications, to which they relapsed. Subsequently, they have their prednisolone maintenance therapy tapered to 5 mg daily with 200 mg sphingomyelin given 3 times weekly for 8 weeks, and is able to function as before without any deterioration of their condition, with increase in their physical activities and general reduction in joint pain and swelling.

[7] = test system: chronic idiopathic thrombocytopenia purpura; assay: Treatment of a patient with chronic idiopathic thrombocytopenia purpura (Example 6); type: in vivo, human
Method: A person with chronic idiopathic thrombocytopenia purpura has been treated with gamma globulins and high-dose dexamethasone, but the disease progresses. They undergo splenectomy, which fails to stabilize the disease. Their platelet count falls to less than 20,000/microliter, and hemorrhagic events increase in frequency. The patient is then treated with epratuzumab, 480 mg intravenously each week, plus 400 mg/wk of sphingomyelin, for a period of six weeks. Four weeks after the last dose of epratuzumab and sphingomyelin, platelet number is increased by 300%, and the hemorrhagic events disappear.

rheumatoid arthritis [8] = assay: Therapy of rheumatoid arthritis with adalimumab combined with sphingomyelin (Example 3); type: in vivo, human
Method: A person with 3 healthy children presents with a history of rheumatoid arthritis (RA) for 9 years, and a prior therapy history of methotrexate, leflunomide, prednisolone, sometimes in combination. They continue on their methotrexate (10 mg) and prednisolone (10 mg) daily doses, and is now given the TNF antagonist, adalimumab (Humira, Abbott Laboratories) subcutaneously at 40 mg every other week, combined with weekly infusions of sphingomyelin at a dose of 400 mg. This therapy is continued for 12 weeks, and they are evaluated for response every 4 weeks after completion of their course of therapy by ACR 20%, 50% and 70% scoring, and EULAR responses.

[9] = B-cells, MTT after four days, from IC50 values of drug

Substance: phosphatidylcholine [PC, reference compound]
- enhancement of chemosensitivity (5FU, DOX) ([1]; lipid control added to the cells instead of sphingomyelin): does not elicit a similar effect

Substance: rituximab: Rituximab (Rituxan, anti-CD20) antibody [reference compound]
- depletion of circulating B-cells ([2]; after the first rituximab infusion (600 mg), combined with weekly sphingomyelin 400 mg): 90%
- duration of circulating B-cell depletion ([2]; rituximab 600 mg every other week x3 + sphingomyelin 400 mg weekly for 6 weeks): about 8 months

Substance: sphingomyelin
- improvement of BILAG scores, number of body systems ([3]; 2 and 6 weeks after sphingomyelin 300 mg twice weekly for 8 weeks + epratuzumab 360 mg/m^2 x4 + prednisolone 15 mg/day): 3 of the 8 body systems
- improvement of condition ([3]; four weeks later, sphingomyelin + epratuzumab + prednisolone): ~40%
- combination effect with prednisolone and epratuzumab ([3]; more effective than either agent alone): synergistic effect
- drop in B-lymphocytes (myasthenia gravis; one week after last treatment, epratuzumab 600 mg i.v. weekly + sphingomyelin 400 mg/wk for six weeks): 50%
- titer of the anti-acetylcholine (receptor antibody) (myasthenia gravis; one week after last treatment, epratuzumab + sphingomyelin): significant drop
- clinical status (myasthenia gravis; two months after the last treatment): mobile
- sensitization to 5FU or DOX therapy [4]: does not sensitize
- duration of improvement after therapy course ([2]; rituximab + sphingomyelin): at least 3 months
- objective parameters of dry eyes and dry mouth ([2]; rituximab + sphingomyelin 400 mg weekly for 6 weeks, prednisolone 15 mg maintenance): improvement
- combination effect with apoptosis-inducing agent ([2]; sphingomyelin with rituximab): synergistic
- improvement in measures of disease activity ([5]; 6 months after the second therapy with veltuzumab and sphingomyelin): 70%
- improvement in measures of disease activity ([5]; after 3 weeks, veltuzumab 80 mg i.v. weekly + sphingomyelin 400 mg/wk for eight weeks): 30%
- duration for which the improvement is maintained ([5]; after first course of veltuzumab + sphingomyelin): 6 months
- normal B-cells in the blood ([5]; veltuzumab + sphingomyelin): significantly reduced
- ESR, CRP and RF factor levels above the normal range (rheumatoid arthritis [6]; 4 and 6 months after onset, therapy of prednisolone, NSAID and sphingomyelin repeated at 3 months): about 20%
- reduction of joint stiffness and swelling compared to baseline (rheumatoid arthritis [6]; 4 and 6 months after onset, therapy repeated at 3 months): about 50%
- improvement in the ACR20 score (rheumatoid arthritis [6]; 4 and 6 weeks after sphingomyelin 400 mg i.v. twice weekly for 3 weeks, added to ibuprofen, prednisolone, cyclophosphamide): 20%
- improvement in the elevated CRP, RF and ESR levels (rheumatoid arthritis [6]; 4 and 6 weeks after sphingomyelin 400 mg i.v. twice weekly for 3 weeks, added to prior medications): about 50%
- joint stiffness in the morning (rheumatoid arthritis [6]; 4 and 6 weeks later, baseline more than 45 minutes): less than 15 minutes
- combination effect with standard anti-rheumatoid therapeutic agents (rheumatoid arthritis [6]; compared with either sphingomyelin or standard agents alone): more than additive effect
- increase of 5FU sensitivity [1, 9]: 140%
- increase of DOX sensitivity [1, 9]: 340%
- hemorrhagic events ([7]; four weeks after last dose of epratuzumab and sphingomyelin): disappear
- increase of platelet number ([7]; four weeks after last dose, epratuzumab 480 mg i.v. weekly + sphingomyelin 400 mg/wk for six weeks): 300%
- disease status ([7]; three months after the last treatment): full remission
- overall response (rheumatoid arthritis [8]; 6-month evaluation, anti-TNF therapy combined with sphingomyelin): good response
- ACR response (rheumatoid arthritis [8]; end of 12-week course, sphingomyelin 400 mg weekly + adalimumab 40 mg s.c. every other week + methotrexate, prednisolone): ACR50 improvement
- EULAR response (rheumatoid arthritis [8]; end of 12-week course, sphingomyelin + adalimumab + methotrexate, prednisolone): moderate EURAR response
- tolerability of therapy (rheumatoid arthritis [8]; sphingomyelin 400 mg weekly + adalimumab, 12 weeks): tolerated well

Substance: veltuzumab: anti-CD20 humanized Mab
- human anti-veltuzumab antibodies ([5]; human, in vivo): No human anti-veltuzumab antibodies are observed

Reference: patent US7683044B2, “Sphingomyelin therapy of autoimmune disease” (Center for Molecular Medicine and Immunology, priority 1999, dated 2010)
